{"source": "patent EP4818158A1", "about": "“BIARYL COMPOUND” (Kissei Pharmaceutical Co., Ltd., priority 2023, dated 2025)", "molecular_target": "T1, human TSHR (Homo sapiens, UniProt P16473)", "T1 construct": "expressed in transfected cells", "T1 sequence (P16473 21-764)": "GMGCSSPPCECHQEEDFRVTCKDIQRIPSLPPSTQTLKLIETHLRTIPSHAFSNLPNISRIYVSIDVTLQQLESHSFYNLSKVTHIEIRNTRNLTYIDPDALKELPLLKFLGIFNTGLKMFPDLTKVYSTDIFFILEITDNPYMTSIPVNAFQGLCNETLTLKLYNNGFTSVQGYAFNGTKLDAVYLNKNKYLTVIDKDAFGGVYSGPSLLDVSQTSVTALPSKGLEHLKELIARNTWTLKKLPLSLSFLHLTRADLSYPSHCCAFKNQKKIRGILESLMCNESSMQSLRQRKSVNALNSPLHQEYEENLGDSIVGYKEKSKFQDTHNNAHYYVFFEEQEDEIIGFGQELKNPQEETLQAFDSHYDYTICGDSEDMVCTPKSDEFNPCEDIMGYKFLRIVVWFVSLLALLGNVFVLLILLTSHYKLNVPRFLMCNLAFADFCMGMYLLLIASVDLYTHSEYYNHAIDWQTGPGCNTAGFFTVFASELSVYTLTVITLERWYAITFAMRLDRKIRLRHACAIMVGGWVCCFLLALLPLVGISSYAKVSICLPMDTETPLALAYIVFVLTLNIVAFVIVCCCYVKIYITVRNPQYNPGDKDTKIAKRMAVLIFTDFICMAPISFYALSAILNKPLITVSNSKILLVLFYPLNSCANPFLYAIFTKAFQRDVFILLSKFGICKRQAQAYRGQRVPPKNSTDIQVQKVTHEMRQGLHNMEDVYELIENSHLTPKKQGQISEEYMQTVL", "experiment": "Antagonist activity using TSH-induced cAMP generation in human TSHR-stably expressing CHO cells", "assay_type": "cell-based", "details": "human TSH 50 ng/mL", "experimental": "Measurement of antagonist activity using TSH-induced cAMP generation in human TSHR-stably expressing CHO cells as an indicator\nThe gene sequence (reference number: NM_000369.2) of a human TSHR was inserted into multiple cloning sites of pcDNA3.1 (+). Prepared plasmid vectors were introduced into CHO cells using a lipofection method, and human TSHR-stably expressing CHO cells were established. Obtained cells were seeded in a 96-well poly-D-lysine-coated plate at 5 × 10^4 cells/well and cultured in an F12 culture medium containing 10%FBS, 400 µg/mL of G418, 50 U/mL of penicillin, and 50 µg/mL of streptomycin under conditions of 37°C and 5% CO2 for one day. After the culture medium was removed, the cells were washed twice with 100 µL of an assay buffer solution (Hanks' Balanced Salt Solution containing 20 mM HEPES and 1 mM IBMX) per well. 30 µL of a test compound-containing assay buffer solution was added to the well and incubated at room temperature for 15 minutes. Next, 30 µL of an assay buffer solution containing human TSH (final concentration: 50 ng/mL, R&D Systems, Inc.) was added thereto and incubated at 37°C for one hour. A supernatant was removed, a Lysis and Detection Buffer 2(Cisbio) was added thereto, and the mixture was incubated at room temperature for one hour to prepare a cell lysate. According to the instruction manual of a cAMP Gs HiRange kit (Cisbio), the cell lysate, d2-labeled cAMP, and anti-cAMP Europium Cryptate labeled antibodies (Cisbio) were reacted together in a 384-well white microplate. Next, fluorescence intensity ratios (measurement wavelengths: 665 nm/620 nm) were measured using a multi-plate reader (PHERAstar FSX, BMG LABTECH, Japan). The fluorescence intensity ratio of each sample was converted to a cAMP content using a standard curve. The cAMP content was converted as a percentage of the control value to calculate a cAMP generation rate. The cAMP generation rates were plotted against the test compound concentrations using Prism (Graph Pad Software Inc.) to calculate IC50 values. The IC50's of the individual test compounds are shown in the above tables. In the tables, IC50 < 0.3 µM was denoted as A, and 0.3 µM ≤ IC50 < 30 µM was denoted as B. Cases where the IC50 values were not calculated for test compounds from which activity was recognized are denoted as C.", "data": [{"smiles": "NC(=O)NCc1ncccc1-c1ccc(NC(=O)OC[C@H]2C[C@@H]2F)c(F)c1Cc1ccccc1F", "note": "(relative stereo) [Example A-32]", "values": [{"measurement": "IC50", "result": "< 300", "unit": "nM"}]}, {"smiles": "CC(C)(C)OC(=O)Nc1ccc(-c2cccnc2CNC(N)=O)c(Cc2ccccc2F)c1F", "note": "[Example A-1, tert-Butyl (2-fluoro-3-(2-fluorobenzyl)-4-(2-(ureidomethyl)pyridin-3-yl)phenyl)carbamate]", "values": [{"measurement": "IC50", "result": "< 300", "unit": "nM"}]}, {"smiles": "CC(C)(C)OC(=O)Nc1ccc(-c2cccnc2CNC(N)=O)c(Cc2ccccc2C#N)c1F", "note": "[Example A-2, tert-Butyl (3-(2-cyanobenzyl)-2-fluoro-4-(2-(ureidomethyl)pyridin-3-yl)phenyl)carbamate]", "values": [{"measurement": "IC50", "result": "300 to 30000", "unit": "nM"}]}, {"smiles": "CC(C)(C)OC(=O)Nc1ccc(-c2cccnc2CNC(N)=O)c(Cc2c(F)cccc2C#N)c1F", "note": "[Example A-3, tert-Butyl (3-(2-cyano-6-fluorobenzyl)-2-fluoro-4-(2-(ureidomethyl)pyridin-3-yl)phenyl)carbamate]", "values": [{"measurement": "IC50", "result": "300 to 30000", "unit": "nM"}]}, {"smiles": "CC1(OC(=O)Nc2ccc(-c3cccnc3CNC(N)=O)c(Cc3ccccc3F)c2F)CC1", "note": "[Example A-4, 1-Methylcyclopropyl (2-fluoro-3-(2-fluorobenzyl)-4-(2-(ureidomethyl)pyridin-3-yl)phenyl)carbamate]", "values": [{"measurement": "IC50", "result": "< 300", "unit": "nM"}]}, {"smiles": "NC(=O)NCc1ncccc1-c1ccc(NC(=O)O[C@H]2C[C@H](F)C2)c(F)c1Cc1ccccc1F", "note": "[Example A-5, trans-3-Fluorocyclobutyl (2-fluoro-3-(2-fluorobenzyl)-4-(2-(ureidomethyl)pyridin-3-yl)phenyl)carbamate]", "values": [{"measurement": "IC50", "result": "< 300", "unit": "nM"}]}, {"smiles": "NC(=O)NCc1ncccc1-c1ccc(NC(=O)OC2CC(F)(F)C2)c(F)c1Cc1ccccc1F", "note": "[Example A-6]", "values": [{"measurement": "IC50", "result": "< 300", "unit": "nM"}]}, {"smiles": "CC(C)(C#N)COC(=O)Nc1ccc(-c2cccnc2CNC(N)=O)c(Cc2ccccc2F)c1F", "note": "[Example A-7]", "values": [{"measurement": "IC50", "result": "< 300", "unit": "nM"}]}, {"smiles": "N#CC1(COC(=O)Nc2ccc(-c3cccnc3CNC(N)=O)c(Cc3ccccc3F)c2F)CC1", "note": "[Example A-8]", "values": [{"measurement": "IC50", "result": "< 300", "unit": "nM"}]}, {"smiles": "Cc1ccnc(CNC(N)=O)c1-c1ccc(NC(=O)OC(C)(C)C)c(F)c1Cc1ccccc1", "note": "[Example A-9, tert-Butyl (3-benzyl-2-fluoro-4-(4-methyl-2-(ureidomethyl)pyridin-3-yl)phenyl)carbamate]", "values": [{"measurement": "IC50", "result": "300 to 30000", "unit": "nM"}]}, {"smiles": "Cc1cnc(CNC(N)=O)c(-c2ccc(NC(=O)OC(C)(C)C)c(F)c2Cc2ccccc2F)c1", "note": "[Example A-10, tert-Butyl (2-fluoro-3-(2-fluorobenzyl)-4-(5-methyl-2-(ureidomethyl)pyridin-3-yl)phenyl)carbamate]", "values": [{"measurement": "IC50", "result": "300 to 30000", "unit": "nM"}]}, {"smiles": "CC(c1ccccc1)c1cc(NC(=O)OC(C)(C)C)ccc1-c1cccnc1/C=C/C(N)=O", "note": "(stereo not drawn) [Example A-11, tert-Butyl (E)-(4-(2-(3-amino-3-oxopropan-1-en-1-yl)pyridin-3-yl)-3-(1-phenylethyl)phenyl)carbamate]", "values": [{"measurement": "IC50", "result": "300 to 30000", "unit": "nM"}]}, {"smiles": "CC(c1ccccc1)c1cc(NC(=O)OC(C)(C)C)ccc1-c1cccnc1CCC(N)=O", "note": "(stereo not drawn) [Example A-12, tert-Butyl (4-(2-(3-amino-3-oxopropyl)pyridine-3-yl)-3-(1-phenylethyl)phenyl)carbamate]", "values": [{"measurement": "IC50", "result": "300 to 30000", "unit": "nM"}]}, {"smiles": "Cc1c(NC(=O)OC(C)(C)C)ccc(-c2cccnc2CNC(N)=O)c1Cc1ccccc1F", "note": "[Example A-13, tert-Butyl (3-(2-fluorobenzyl)-2-methyl-4-(2-(ureidomethyl)pyridin-3-yl)phenyl)carbamate]", "values": [{"measurement": "IC50", "result": "< 300", "unit": "nM"}]}, {"smiles": "CC(C)(C)OC(=O)Nc1c(F)cc(-c2cccnc2CNC(N)=O)c(Cc2ccccc2F)c1F", "note": "[Example A-14, tert-Butyl (2,6-difluoro-3-(2-fluorobenzyl)-4-(2-(ureidomethyl)pyridin-3-yl)phenyl)carbamate]", "values": [{"measurement": "IC50", "result": "< 300", "unit": "nM"}]}, {"smiles": "CC(C)(C)OC(=O)Nc1ccc(-c2cccnc2CNC(N)=O)c(Cc2cccc(F)c2)c1F", "note": "[Example A-15]", "values": [{"measurement": "IC50", "result": "300 to 30000", "unit": "nM"}]}, {"smiles": "CC(C)(C)OC(=O)Nc1ccc(-c2cccnc2CNC(N)=O)c(Cc2ccc(F)cc2)c1F", "note": "[Example A-16]", "values": [{"measurement": "IC50", "result": "< 300", "unit": "nM"}]}, {"smiles": "COc1ccccc1Cc1c(-c2cccnc2CNC(N)=O)ccc(NC(=O)OC(C)(C)C)c1F", "note": "[Example A-17, tert-Butyl (2-fluoro-3-(2-methoxybenzyl)-4-(2-(ureidomethyl)pyridin-3-yl)phenyl)carbamate]", "values": [{"measurement": "IC50", "result": "300 to 30000", "unit": "nM"}]}]}
